Data from patent US20230348401A1, “Inhibitors of Glucose-6-phosphate Dehydrogenase and Uses Thereof” (The Trustees of Princeton University, priority 2020, published 2023).

How the values were obtained:
HCT116 cells = test: NADP/NADPH ratio and dUMP levels in HCT116 cells; format: cell-based, human; details: dose-response
Description: For analysis of intracellular metabolites by LC-MS, adherent cell lines were plated and grown to 80% confluency in 6-well plates. At the start of an experiment, the appropriate media was added to cells, which included isotope tracers and/or chemical inhibitors as described. Cells were incubated at 37° C. at 5% CO2 for 2 hours (unless otherwise noted). For all experiments involving small molecule agents, DMSO concentrations were <0.2%. After 2 hours, media was removed by aspiration and metabolome extraction was performed (without any wash steps) by the addition of 800 µL of ice cold solvent (40:40:20 acetonitrile:methanol:water + 0.5% formic acid). After a 1-minute incubation on ice, the extract was neutralized by the addition of NH4HCO3 (15% w/v). The samples were incubated at -20° C. for approximately 30 minutes, at which point the wells were scraped and the extract transferred to Eppendorf tubes and centrifuged (15 minutes, 16000 rpm, 4° C.). […]
(§1) Metabolites were analyzed using a quadrupole-orbitrap mass spectrometer (Q Exactive Plus, Thermo Fisher Scientific, Waltham, MA), coupled to hydrophilic interaction chromatography (HILIC) with LC separation on a XBridge BEH Amide column (Waters), or a stand-alone orbitrap (Thermo-Fisher Exactive) coupled to reversed-phase ion-pairing chromatography with LC separation on a HSS-T3 column (Waters). […]

[1] = tested on: mouse CD8+ and CD4+ T cells; test: Metabolites and 1-2H-glucose tracing in active T cells; format: cell-based
Description: Cells were cultured in complete RPMI media (RPMI 1640 supplemented with 10% FBS, 100 U/ml penicillin, 100 µg/ml streptomycin, and 50 µM 2-mercaptoethanol). Naïve T cells were either rested in complete RPMI media supplemented with recombinant IL-7 (50U/mL) or stimulated for 48 hours with plate-bound anti-CD3 (10 µg/ml) and anti-CD28 (5 µg/ml) in complete RPMI media supplemented with 100 µM alanine and recombinant IL-2 (100 U/mL). Activated T cells were maintained in complete RPMI media supplemented with recombinant IL-2 (100 U/mL). All experiments on “active” T cells were performed at day 4-5 post-activation
For all experiments involving stable isotope tracers (e.g., 1-^2H-glucose), the isotope tracer nutrient was substituted for unlabeled nutrient at the same concentration normally found in the base media for a given cell type (e.g., DMEM for HCT116, RPMI for T cells, etc.). In addition, dialyzed FBS was used as a supplement in place of FBS.
(§2) For suspension cells (including T cells and red blood cells), 2×10^6 cells were seeded in 1 mL of media in 12-well plates and incubated with appropriate media, which included isotope tracers and/or chemical inhibitors and/or cytokines, as described. For all experiments involving small molecule agents, DMSO concentrations were <0.2%. After 2 hours, cell suspensions were transferred to 1.5 mL tubes and pelleted (30 seconds, 6000 rpm, room temperature). Media was removed by aspiration and metabolome extraction was performed by the addition of 75 µL of ice cold solvent (40:40:20 ACN:MeOH:H2O + 0.5%FA). After a 5-minute incubation on ice, acid was neutralized by the addition of NH4HCO3. After centrifugation (15 minutes, 16000 rpm, 4° C.), the resulting supernatant was transferred to a clean tube, frozen on dry ice and kept at -80° C. until LC-MS analysis.

active CD8+ T cells = test: Absolute oxPPP flux by 14CO2 emission; format: cell-based, mouse; details: 10 uM
Description: Glucose oxidation flux through oxPPP was determined from difference in the rate of ^14CO2 released from [1-^14C]-glucose and [6-^14C]-glucose, as previously described with some modification. RPMI 1640 media without sodium bicarbonate was supplemented with 0.74 g/L of NaHCO3, 2.5 mM HEPES pH 7.4, 10% dFBS, and 1% of either 1-^14C-glucose or 6-^14C-glucose. Three million primary mouse naïve (rested in IL-7) or active CD8+ T cells (in the presence of IL2 and 0.1% DMSO or 10 uM G6PDi-1) were incubated for 4 hours in a sealed 12.5 cm^2 flask. To facilitate the collection of ^14CO2, 100 µL of a 10 M KOH solution was introduced into the sealed flask using a center well for incubation flask (8823200000, DWK Life Sciences). The assay was stopped by injection of 1 mL 1 M HCL, and the KOH solution then transferred to scintillation vials containing 10 mL scintillation solution for counting. The signal was corrected for the percentage of radioactive tracer in the medium. OxPPP flux is calculated as follows: […]

T cell lineages = test: NADPH and NADP+ pools across cell types (LC-MS); format: cell-based
Description: as §2, §1

human neutrophils = test: Neutrophil oxidative burst assay (human); format: cell-based; details: PMA, 50 µM
Description: Human neutrophils were isolated from 8 ml of blood collected from healthy donors following the protocol approved by the University of Wisconsin Institutional Review Board (Protocol No. 2019-1031-CP001). Neutrophils were purified using the MACSxpress Whole Blood Neutrophil Isolation Kit (Miltenyi Biotec 130-104-434) followed by erythrocyte depletion (Miltenyi Biotec 130-098-196) according to the manufacturer’s instructions.
Suspended neutrophils were plated in culture wells pre-coated with CELL-TAK™ (Corning), spun at 200 × g for 1 minute with minimal acceleration/deceleration, and then incubated for 1 hour at 37° C. Murine neutrophils were plated at 2×10^5 cells/well in RPMI 1640 media without sodium bicarbonate. Human neutrophils were plated at 5×10^4 cells/well in RPMI 1640 media supplemented with 0.1% human serum albumin. Inhibitor (G6PDi-1, 50 µM) or vehicle control were added just prior to starting the assay. Mouse neutrophils were also treated with rotenone (0.5 µM, BioVision) + antimycin A (0.5 µM, BioVision) at t = 20 minutes. Oxidative burst was stimulated with PMA (100 nM, Cayman Chemical); oxygen consumption rate was measured using the XF-96e extracellular flux analyzer (Seahorse Bioscience).

Compound: N#Cc1cc(Nc2ncc3c(n2)CCCCC3=O)cs1 [Compound 2, 4-([5-oxo-6H,7H,8H,9H-cyclohepta[d]pyrimidin-2-yl]amino)thiophene-2-carbonitrile]
- NADP/NADPH (HCT116 cells): dose-dependent increases
- dUMP (HCT116 cells): dose-dependent increases
- NADPH and 6-pg levels ([1]; 10 µM, day 4-5 post-activation): decreased
- 2H transfer from glucose to NADPH ([1]; 10 µM, day 4-5 post-activation, 1-2H-glucose): completely blocked
- fatty acid synthesis ([1]; CD8+ T cells): nearly completely ablated
- time to effects on NADPH labeling and NADP+, NADPH and 6-pg levels ([1]; active CD8+ T cells, 50 µM): ≤ 10 min
- time to restoration of NADPH, NADP+ and 6-pg levels after removing the inhibitor ([1]; active T cells): ≤ 2 h
- absolute oxPPP flux (active CD8+ T cells): blocked
- decrease in NADPH (T cell lineages): > 10 fold
- increase in NADP+ (T cell lineages): 5-10 fold
- oxidative burst (oxygen consumption rate) (human neutrophils): decreased oxidative burst
